Measurements published in PubChem BioAssay (NCI).
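Five concentrations, 48 hours, 96-well plates. The concentration for 50% growth inhibition is given as GI50. Definition used: TGI = concentration required for complete inhibition of growth.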

Columns and labels:
Assay in all cases: NCI tumour cell line growth inhibition, 48 h
UACC-257 melanoma = tested on: UACC-257 melanoma
HS 578T breast = tested on: HS 578T breast
NCI-H226 lung = tested on: NCI-H226 lung
HOP-62 NSCLC = tested on: HOP-62 NSCLC
MDA-MB-231 breast = tested on: MDA-MB-231 breast
MCF7 breast = tested on: MCF7 breast
OVCAR-4 ovarian = tested on: OVCAR-4 ovarian
MALME-3M melanoma = tested on: MALME-3M melanoma
SNB-19 CNS = tested on: SNB-19 CNS
A549 NSCLC = tested on: A549 NSCLC
RPMI-8226 leukemia = tested on: RPMI-8226 leukemia
MOLT-4 leukemia = tested on: MOLT-4 leukemia
K-562 leukemia = tested on: K-562 leukemia
SF-295 CNS = tested on: SF-295 CNS
CCRF-CEM leukemia = tested on: CCRF-CEM leukemia
SR leukemia = tested on: SR leukemia
NCI/ADR-RES ovarian = tested on: NCI/ADR-RES ovarian
SK-MEL-2 melanoma = tested on: SK-MEL-2 melanoma
COLO 205 colon = tested on: COLO 205 colon
OVCAR-3 ovarian = tested on: OVCAR-3 ovarian
HT29 colon = tested on: HT29 colon
SF-539 CNS = tested on: SF-539 CNS
BT-549 breast = tested on: BT-549 breast
DU-145 prostate = tested on: DU-145 prostate
SK-OV-3 ovarian = tested on: SK-OV-3 ovarian
UO-31 renal = tested on: UO-31 renal
SK-MEL-28 melanoma = tested on: SK-MEL-28 melanoma
HCC-2998 colon = tested on: HCC-2998 colon
HL-60(TB) leukemia = tested on: HL-60(TB) leukemia
A498 renal = tested on: A498 renal
OVCAR-5 ovarian = tested on: OVCAR-5 ovarian
IGROV1 ovarian = tested on: IGROV1 ovarian
SNB-75 CNS = tested on: SNB-75 CNS
NCI-H460 lung = tested on: NCI-H460 lung
MDA-MB-435 = tested on: MDA-MB-435
HCT-15 colon = tested on: HCT-15 colon
KM12 colon = tested on: KM12 colon
HCT-116 colon = tested on: HCT-116 colon
LOX IMVI melanoma = tested on: LOX IMVI melanoma
PC-3 prostate = tested on: PC-3 prostate
SW-620 colon = tested on: SW-620 colon
786-0 renal = tested on: 786-0 renal
SK-MEL-5 melanoma = tested on: SK-MEL-5 melanoma
UACC-62 melanoma = tested on: UACC-62 melanoma
NCI-H23 lung = tested on: NCI-H23 lung
ACHN renal = tested on: ACHN renal
HOP-92 NSCLC = tested on: HOP-92 NSCLC
EKVX NSCLC = tested on: EKVX NSCLC
NCI-H522 lung = tested on: NCI-H522 lung
SN12C renal = tested on: SN12C renal
CAKI-1 renal = tested on: CAKI-1 renal
RXF 393 renal = tested on: RXF 393 renal
U251 CNS = tested on: U251 CNS
OVCAR-8 ovarian = tested on: OVCAR-8 ovarian
SF-268 CNS = tested on: SF-268 CNS
TK-10 renal = tested on: TK-10 renal
M14 melanoma = tested on: M14 melanoma

With `CC1=C(C)C(=O)OC([C@](C)(O)[C@]2(O)CC[C@@]3(O)[C@@H]4C[C@H]5O[C@]56CC=CC(=O)[C@]6(C)[C@H]4CC[C@]23COC(=O)c2ccc(C)o2)C1` (stereo not given in full) the TGI (UACC-257 melanoma) was > 20.9 µM, the TGI (HS 578T breast) was > 51.6 µM and the TGI (NCI-H226 lung) was > 33 µM. For the same molecule, the TGI (HOP-62 NSCLC) was > 21 µM, the TGI (MDA-MB-231 breast) was > 24.4 µM and the GI50 (MCF7 breast) was > 100 µM. For the same molecule, the TGI (MCF7 breast) was > 100 µM, the TGI (OVCAR-4 ovarian) was > 34.1 µM and the TGI (MALME-3M melanoma) was > 31.8 µM. For the same molecule, the TGI (SNB-19 CNS) was > 24.7 µM, the TGI (A549 NSCLC) was > 32.4 µM and the TGI (RPMI-8226 leukemia) was > 33.2 µM. The TGI (MOLT-4 leukemia) was > 22.4 µM, the TGI (K-562 leukemia) was > 43.5 µM and the TGI (SF-295 CNS) was > 32.6 µM. For the same molecule, the TGI (CCRF-CEM leukemia) was > 35.4 µM, the TGI (SR leukemia) was > 100 µM and the TGI (NCI/ADR-RES ovarian) was > 79.7 µM.
`COc1ccccc1Cn1c2c(c3c(C(=O)NCCN(C)C)c(O)ccc31)C(=O)c1ccccc1C2=O` was tested, and the TGI (SK-MEL-2 melanoma) was 3.46 µM, the TGI (COLO 205 colon) was 3.19 µM and the TGI (NCI-H226 lung) was 51.5 µM. It also gave a TGI (OVCAR-3 ovarian) of 3.36 µM, a TGI (HT29 colon) of 3.47 µM and a TGI (SF-539 CNS) of 3.09 µM. For the same molecule, the TGI (MDA-MB-231 breast) was 3.72 µM, the TGI (BT-549 breast) was 64.7 µM and the TGI (DU-145 prostate) was 3.31 µM. The TGI (SK-OV-3 ovarian) was 43.4 µM, the TGI (UO-31 renal) was 3.33 µM and the TGI (OVCAR-4 ovarian) was 3.04 µM. The TGI (SK-MEL-28 melanoma) was 3.15 µM, the TGI (HCC-2998 colon) was 3.02 µM and the TGI (HL-60(TB) leukemia) was 2.78 µM. For the same molecule, the TGI (A498 renal) was 41.2 µM, the TGI (OVCAR-5 ovarian) was 3.62 µM and the TGI (IGROV1 ovarian) was 3.23 µM. It also gave a TGI (K-562 leukemia) of 4 µM, a TGI (SNB-75 CNS) of 2.96 µM and a TGI (NCI-H460 lung) of 4.23 µM. The TGI (NCI/ADR-RES ovarian) was 4.93 µM and the TGI (MDA-MB-435) was 3.24 µM.
For `COC(=O)C(Cc1ccccc1)C(=O)C(CC(=O)OC(C)(C)C)NC(=O)OC(C)(C)C` (stereo not given), the GI50 (HCT-15 colon) was 28.2 µg/mL, the GI50 (UO-31 renal) was 24.7 µg/mL and the TGI (UO-31 renal) was 66.8 µg/mL. It also gave a GI50 (A549 NSCLC) of 26.2 µg/mL, a GI50 (KM12 colon) of 59.7 µg/mL and a GI50 (HCT-116 colon) of 26.5 µg/mL. The TGI (HCT-116 colon) was 87.9 µg/mL.
For `COc1ccc(-c2nocc2-c2cc(OC)c(OC)c(OC)c2)cc1`, the GI50 (SK-MEL-2 melanoma) was 0.0664 µM, the TGI (SK-MEL-2 melanoma) was 69.2 µM and the GI50 (LOX IMVI melanoma) was 0.212 µM. The TGI (LOX IMVI melanoma) was > 74.5 µM, the GI50 (PC-3 prostate) was 0.0536 µM and the TGI (PC-3 prostate) was 37.6 µM. For the same molecule, the GI50 (SW-620 colon) was 0.0466 µM, the TGI (SW-620 colon) was > 100 µM and the GI50 (786-0 renal) was 0.109 µM. It also gave a TGI (786-0 renal) of 31.6 µM, a GI50 (COLO 205 colon) of 0.0531 µM and a TGI (COLO 205 colon) of 1.24 µM. For the same molecule, the GI50 (HS 578T breast) was 0.216 µM, the TGI (HS 578T breast) was > 100 µM and the GI50 (SK-MEL-5 melanoma) was 0.0736 µM. For the same molecule, the TGI (SK-MEL-5 melanoma) was 4.45 µM, the GI50 (NCI-H226 lung) was 14.9 µM and the TGI (NCI-H226 lung) was 56.1 µM. The GI50 (OVCAR-3 ovarian) was 0.0364 µM, the TGI (OVCAR-3 ovarian) was 0.474 µM and the GI50 (HT29 colon) was 0.0379 µM. It also gave a TGI (HT29 colon) of 4.76 µM, a GI50 (UACC-62 melanoma) of 0.0489 µM and a TGI (UACC-62 melanoma) of 18.9 µM. For the same molecule, the GI50 (NCI-H23 lung) was 0.445 µM, the TGI (NCI-H23 lung) was > 86.5 µM and the GI50 (ACHN renal) was 1.53 µM. The TGI (ACHN renal) was > 70.3 µM, the GI50 (HOP-92 NSCLC) was 2.02 µM and the TGI (HOP-92 NSCLC) was 59 µM. It also gave a GI50 (SF-539 CNS) of 0.132 µM, a TGI (SF-539 CNS) of 20.7 µM and a GI50 (EKVX NSCLC) of 0.121 µM. The TGI (EKVX NSCLC) was > 100 µM, the GI50 (HOP-62 NSCLC) was 0.138 µM and the TGI (HOP-62 NSCLC) was > 100 µM. The GI50 (MDA-MB-231 breast) was 0.35 µM, the TGI (MDA-MB-231 breast) was > 58.4 µM and the GI50 (BT-549 breast) was 0.112 µM. It also gave a TGI (BT-549 breast) of 19.5 µM, a GI50 (NCI-H522 lung) of 0.0323 µM and a TGI (NCI-H522 lung) of 0.499 µM. The GI50 (DU-145 prostate) was 0.286 µM, the TGI (DU-145 prostate) was > 100 µM and the GI50 (SN12C renal) was 0.942 µM. The TGI (SN12C renal) was > 96.2 µM, the GI50 (SK-OV-3 ovarian) was 0.142 µM and the TGI (SK-OV-3 ovarian) was > 82.8 µM. For the same molecule, the GI50 (CAKI-1 renal) was 0.236 µM, the TGI (CAKI-1 renal) was > 100 µM and the GI50 (HCT-15 colon) was 0.0447 µM. For the same molecule, the TGI (HCT-15 colon) was > 100 µM, the GI50 (UO-31 renal) was 0.54 µM and the TGI (UO-31 renal) was 29 µM. The GI50 (MCF7 breast) was 0.0387 µM, the TGI (MCF7 breast) was > 100 µM and the GI50 (OVCAR-4 ovarian) was 2.21 µM. The TGI (OVCAR-4 ovarian) was > 100 µM, the GI50 (MALME-3M melanoma) was 21.6 µM and the TGI (MALME-3M melanoma) was 60.7 µM. It also gave a GI50 (RXF 393 renal) of 0.14 µM, a TGI (RXF 393 renal) of 0.797 µM and a GI50 (SNB-19 CNS) of 0.175 µM. The TGI (SNB-19 CNS) was > 100 µM, the GI50 (SK-MEL-28 melanoma) was 6.9 µM and the TGI (SK-MEL-28 melanoma) was > 89.9 µM. It also gave a GI50 (HCC-2998 colon) of 0.358 µM, a TGI (HCC-2998 colon) of 28 µM and a GI50 (A549 NSCLC) of 0.0907 µM. For the same molecule, the TGI (A549 NSCLC) was > 100 µM, the GI50 (U251 CNS) was 0.0793 µM and the TGI (U251 CNS) was > 81.1 µM. The GI50 (OVCAR-8 ovarian) was 0.228 µM, the TGI (OVCAR-8 ovarian) was > 100 µM and the GI50 (SF-268 CNS) was 0.683 µM. The TGI (SF-268 CNS) was > 85.9 µM, the GI50 (HL-60(TB) leukemia) was 0.0387 µM and the TGI (HL-60(TB) leukemia) was 0.886 µM. For the same molecule, the GI50 (A498 renal) was 0.0441 µM, the TGI (A498 renal) was 2.9 µM and the GI50 (KM12 colon) was 0.0386 µM. It also gave a TGI (KM12 colon) of 14.1 µM, a GI50 (RPMI-8226 leukemia) of 0.348 µM and a TGI (RPMI-8226 leukemia) of 30.9 µM. For the same molecule, the GI50 (MOLT-4 leukemia) was 0.3 µM, the TGI (MOLT-4 leukemia) was > 100 µM and the GI50 (TK-10 renal) was 0.93 µM. The TGI (TK-10 renal) was 62.7 µM, the GI50 (OVCAR-5 ovarian) was 1.38 µM and the TGI (OVCAR-5 ovarian) was > 100 µM. The GI50 (IGROV1 ovarian) was 0.346 µM, the TGI (IGROV1 ovarian) was > 100 µM and the GI50 (K-562 leukemia) was 0.0426 µM. The TGI (K-562 leukemia) was > 100 µM, the GI50 (SNB-75 CNS) was 0.0751 µM and the TGI (SNB-75 CNS) was > 100 µM. The GI50 (SF-295 CNS) was 0.0475 µM, the TGI (SF-295 CNS) was 16.9 µM and the GI50 (M14 melanoma) was 0.054 µM. For the same molecule, the TGI (M14 melanoma) was 5.82 µM, the GI50 (CCRF-CEM leukemia) was 0.189 µM and the TGI (CCRF-CEM leukemia) was > 100 µM. For the same molecule, the GI50 (NCI-H460 lung) was 0.048 µM, the TGI (NCI-H460 lung) was 15.5 µM and the GI50 (HCT-116 colon) was 0.0412 µM. The TGI (HCT-116 colon) was 13.1 µM, the GI50 (SR leukemia) was 0.0497 µM and the TGI (SR leukemia) was > 76.3 µM. The GI50 (NCI/ADR-RES ovarian) was 0.0492 µM, the TGI (NCI/ADR-RES ovarian) was > 61 µM and the GI50 (MDA-MB-435) was 0.0239 µM. For the same molecule, the TGI (MDA-MB-435) was 0.13 µM.
